Counter-ions that a name gives are not always drawn.
Experiments:
[1] = target: T1, pseudo-kinase domain (JH2, amino-acids 536-812) of human V617F mutant JAK2 (Homo sapiens, UniProt O60674, F794H/V617F/W659A/W777A); experiment: JAK2 LanthaScreen JH2-V617F Binding Assay; details: 1 hour at 25° C.
T1 construct: pseudo-kinase domain (JH2, amino-acids 536-812 with 3 surface mutations W659A, W777A, F794H); purchased BPS Bioscience 79498; host or cells: baculovirus expression system
Procedure, shortened: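 Biotinylated His-Avi-tagged construct, baculovirus-expressed, at 0.26 nM; compounds competed against 50 nM fluorescent JH2 tracer with 0.25 nM streptavidin-Tb in Tris pH 7.5 buffer. Non-specific binding defined with 2 mM ATP. Read after 1 h at 25° C by TR-FRET; IC50 from four-parameter fit.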

[2] = target: T2, catalytic domain (JH1, amino acids 808-1132) of human JAK2 (Homo sapiens, UniProt O60674); experiment: JAK2 HTRF Enzyme Activity Assay; format: biochemical; details: ATP 30 μM, read-out: ENZ 30UMATP
T2 construct: catalytic domain (JH1, amino acids 808-1132) of human JAK2; His (N); purchased BPS Bioscience 40450; host or cells: baculovirus expression system
T2 sequence (O60674 808-1132): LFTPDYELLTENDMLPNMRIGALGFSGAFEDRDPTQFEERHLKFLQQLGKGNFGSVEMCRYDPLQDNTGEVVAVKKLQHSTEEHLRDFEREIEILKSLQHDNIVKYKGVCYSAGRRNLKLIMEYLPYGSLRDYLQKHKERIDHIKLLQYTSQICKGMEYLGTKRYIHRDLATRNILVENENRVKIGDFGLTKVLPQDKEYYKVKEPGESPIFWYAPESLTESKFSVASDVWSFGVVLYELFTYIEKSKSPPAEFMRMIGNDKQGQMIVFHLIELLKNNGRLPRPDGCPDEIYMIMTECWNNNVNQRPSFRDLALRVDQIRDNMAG
Procedure, shortened: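 His-tagged JAK2 JH1 from baculovirus, 0.015 nM, incubated with compound, ATP at 30 μM or 1 mM and 500 nM biotinylated peptide, pH 7.5, 60 min at 25° C. HTRF read-out via Eu-anti-phosphotyrosine and streptavidin-APC after EDTA stop; IC50 from four-parameter dose-response fit.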

[3] = target: T3, pseudo-kinase domain (JH2, amino-acids 536-812) of human Wild Type JAK2 (Homo sapiens, UniProt O60674, F794H/W659A/W777A); experiment: JAK2 LanthaScreen JH2-WT Binding Assay; details: 1 hour at 25° C.
T3 construct: pseudo-kinase domain (JH2, amino-acids 536-812 with 3 surface mutations W659A, W777A, F794H); purchased BPS Bioscience 79463; host or cells: baculovirus expression system
T3 sequence (O60674 536-812 W659A/W777A/F794H): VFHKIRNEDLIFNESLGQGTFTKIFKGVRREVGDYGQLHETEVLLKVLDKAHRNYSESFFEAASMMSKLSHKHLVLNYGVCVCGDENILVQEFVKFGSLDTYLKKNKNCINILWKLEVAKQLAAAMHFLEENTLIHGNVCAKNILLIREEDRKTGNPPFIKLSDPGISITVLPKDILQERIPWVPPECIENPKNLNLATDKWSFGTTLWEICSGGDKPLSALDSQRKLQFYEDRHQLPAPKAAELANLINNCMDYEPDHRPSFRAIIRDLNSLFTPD
Procedure, shortened: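 TR-FRET tracer displacement: IC50 from four-parameter dose-response fit. Reaction: compound, 0.145 nM biotinylated JH2 protein from baculovirus, 0.25 nM streptavidin-Tb and 50 nM tracer, 1 h at 25° C, 50 mM Tris pH 7.5 buffer. 2 mM ATP gave non-specific binding.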

[4] = target: T4, catalytic domain (JH1, amino acids 826-1132) of human JAK2 (Homo sapiens, UniProt O60674); experiment: JAK2 LanthaScreen JH1 Binding Assay; details: 2 hours at 25° C.
T4 construct: catalytic domain (JH1, amino acids 826-1132) of human JAK2; purchased Carna Biosciences 08-445-20N; host or cells: baculovirus expression system
T4 sequence (O60674 826-1132): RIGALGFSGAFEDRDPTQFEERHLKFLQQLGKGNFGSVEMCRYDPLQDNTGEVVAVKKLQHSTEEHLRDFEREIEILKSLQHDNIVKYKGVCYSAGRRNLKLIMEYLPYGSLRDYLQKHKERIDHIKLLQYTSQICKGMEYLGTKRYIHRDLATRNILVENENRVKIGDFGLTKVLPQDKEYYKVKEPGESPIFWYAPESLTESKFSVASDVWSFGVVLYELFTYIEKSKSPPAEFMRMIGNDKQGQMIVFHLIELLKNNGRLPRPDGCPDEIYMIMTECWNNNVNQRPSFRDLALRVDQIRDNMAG
Procedure, shortened: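 FLAG-tagged biotinylated JAK2 JH1 (1.5 nM) incubated with compounds, 50 nM fluorescent tracer and 0.5 nM streptavidin-Tb in Tris pH 7.5 buffer with MgCl2, BSA, DTT, 2 h at 25 °C.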

T1 sequence (O60674 536-812 V617F/W659A/W777A/F794H): as the sequence (O60674 536-812 W659A/W777A/F794H) above, with V82F counted along it

Compound | IC50 [1] [nM] | IC50 [2] [nM] | IC50 [3] [nM] | IC50 [4] [nM]
CC(=O)NC12CC(N3CCC4(CC3)C(=O)N(C)c3cnc5[nH]c(-c6cnn(C)c6)c(-c6ccc7c(cnn7C)c6)c5c34)(C1)C2 [Example 82, N-(3-(6-Methyl-1-(1-methyl-1H-indazol-5-yl)-2-(1-methyl-1H-pyrazol-4-yl)-7-oxo-6,7-dihydro-3H-spiro[dipyrrolo[2,3-b:3′,2′-d]pyridine-8,4′-piperidin]-1′-yl)bicyclo[1.1.1]pentan-1-yl)acetamide] | ≤ 100 | 100 to 500 | ≤ 100 | 100 to 500
COC(=O)N1CC2(N3CCC4(CC3)C(=O)N(C)c3cnc5[nH]c(-c6cnn(C)c6)c(-c6ccc7c(cnn7C)c6)c5c34)CC1C2 [Example 83, Methyl 4-(6-methyl-1-(1-methyl-1H-indazol-5-yl)-2-(1-methyl-1H-pyrazol-4-yl)-7-oxo-6,7-dihydro-3H-spiro[dipyrrolo[2,3-b:3′,2′-d]pyridine-8,4′-piperidin]-1′-yl)-2-azabicyclo[2.1.1]hexane-2-carboxylate] | ≤ 100 | 1250 to 2500 | ≤ 100 | 1250 to 2500
CN1C(=O)C2(CCN(C(C)(C)C3CNC3)CC2)c2c1cnc1[nH]c(-c3cnn(C)c3)c(-c3ccc4c(cnn4C)c3)c21 [Example 84, 1′-(2-(Azetidin-3-yl)propan-2-yl)-6-methyl-1-(1-methyl-1H-indazol-5-yl)-2-(1-methyl-1H-pyrazol-4-yl)-3,6-dihydro-7H-spiro[dipyrrolo[2,3-b:3′,2′-d]pyridine-8,4′-piperidin]-7-one] | ≤ 100 | 100 to 500 | ≤ 100 | 500 to 1250
O=C(O)C(F)(F)F.[2H]C([2H])([2H])n1ncc2cc(-c3c(-c4ccc(CN5CCOCC5)cc4)[nH]c4ncc5c(c34)C3(CC4(CN(S(=O)(=O)CC)C4)C3)C(=O)N5C)ccc21 [Example 85, 1-(Ethylsulfonyl)-6″-methyl-1″-(1-(methyl-d3)-1H-indazol-5-yl)-2″-(4-(morpholinomethyl)phenyl)-3″,6″-dihydro-7″H-dispiro[azetidine-3,1′-cyclobutane-3′,8″-dipyrrolo[2,3-b:3′,2′-d]pyridin]-7″-one, trifluoroacetate salt] | ≤ 100 | 1250 to 2500 | ≤ 100 | 1250 to 2500
CCS(=O)(=O)N1CC2(C1)CC1(C2)C(=O)N(C)c2cnc3[nH]c(-c4cnn(C)c4)c(-c4ccc5c(cnn5C)c4)c3c21 [Example 86, l-(Ethylsulfonyl)-6″-methyl-1″-(1-methyl-1H-indazol-5-yl)-2″-(1-methyl-1H-pyrazol-4-yl)-3″,6″-dihydro-7″H-dispiro[azetidine-3,1′-cyclobutane-3′,8″-dipyrrolo[2,3-b:3′,2′-d]pyridin]-7″-one, trifluoroacetate salt] | ≤ 100 | 500 to 1250 | ≤ 100 | 500 to 1250
CCS(=O)(=O)N1CC2(C1)CC1(C2)C(=O)N(C)c2cnc3[nH]c(-c4cnn(CC5CC5)c4)c(-c4ccc5c(cnn5C)c4)c3c21 [Example 87, 2″-(1-(Cyclopropylmethyl)-1H-pyrazol-4-yl)-1-(ethylsulfonyl)-6″-methyl-1″-(1-methyl-1H-indazol-5-yl)-3″,6″-dihydro-7″H-dispiro[azetidine-3,1′-cyclobutane-3′,8″-dipyrrolo[2,3-b:3′,2′-d]pyridin]-7″-one, trifluoroacetate salt] | ≤ 100 | 1250 to 2500 | ≤ 100 | 1250 to 2500
CCS(=O)(=O)N1CC2(C1)CC1(C2)C(=O)N(C)c2cnc3[nH]c(-c4cnn(CCOC)c4)c(-c4ccc5c(cnn5C)c4)c3c21 [Example 88, 1-(Ethylsulfonyl)-2″-(1-(2-methoxyethyl)-1H-pyrazol-4-yl)-6″-methyl-1″-(1-methyl-1H-indazol-5-yl)-3″,6″-dihydro-7″H-dispiro[azetidine-3,1′-cyclobutane-3′,8″-dipyrrolo[2,3-b:3′,2′-d]pyridin]-7″-one, trifluoroacetate salt] | ≤ 100 | 1250 to 2500 | ≤ 100 | 1250 to 2500
O=C(O)C(F)(F)F.[2H]C([2H])([2H])N1C(=O)C2(CC3(CN(S(=O)(=O)CC)C3)C2)c2c1cnc1[nH]c(-c3cnn(C(C)C)c3)c(-c3ccc4c(cnn4C)c3)c21 [Example 89, 1-(Ethylsulfonyl)-2″-(1-isopropyl-1H-pyrazol-4-yl)-6″-(methyl-d3)-1″-(1-methyl-1H-indazol-5-yl)-3″,6″-dihydro-7″H-dispiro[azetidine-3,1′-cyclobutane-3′,8″-dipyrrolo[2,3-b:3′,2′-d]pyridin]-7″-one, trifluoroacetate salt] | ≤ 100 | 1250 to 2500 | ≤ 100 | 1250 to 2500
CCS(=O)(=O)N1CC2(C1)CC1(C2)C(=O)N(C)c2cnc3[nH]c(-c4cnn(C5CCCC5)c4)c(-c4ccc5c(cnn5C)c4)c3c21 [Example 90, 2″-(1-Cyclopentyl-1H-pyrazol-4-yl)-1-(ethylsulfonyl)-6″-methyl-1″-(1-methyl-1H-indazol-5-yl)-3″,6″-dihydro-7″H-dispiro[azetidine-3,1′-cyclobutane-3′,8″-dipyrrolo[2,3-b:3′,2′-d]pyridin]-7″-one, trifluoroacetate salt] | ≤ 100 | 1250 to 2500 | ≤ 100 | 1250 to 2500
CCS(=O)(=O)N1CC2(C1)CC1(C2)C(=O)N(C)c2cnc3[nH]c(-c4ccc(CN5CCC(C#N)CC5)cc4)c(-c4ccc5c(cnn5C)c4)c3c21 [Example 91, l-(4-(1-(Ethylsulfonyl)-6″-methyl-1″-(1-(methy-d3)-1H-indazol-5-yl)-7″-oxo-6″,7″-dihydro-3″H-dispiro[azetidine-3,1′-cyclobutane-3′,8″-dipyrrolo[2,3-b:3′,2′-d]pyridin]-2″-yl)benzyl)piperidine-4-carbonitrile, trifluoroacetate salt] | ≤ 100 | 1250 to 2500 | ≤ 100 | 1250 to 2500
O=C(O)C(F)(F)F.[2H]C([2H])([2H])N1C(=O)C2(CC3(CN(S(=O)(=O)CC)C3)C2)c2c1cnc1[nH]c(-c3ccc(CN4CCOCC4)cc3)c(-c3ccc(OC)cc3)c21 [Example 92, 1-(Ethylsulfonyl)-1″-(4-methoxyphenyl)-6″-(methyl-d3)-2″-(4-(morpholinomethyl)phenyl)-3″,6″-dihydro-7″H-dispiro[azetidine-3,1′-cyclobutane-3′,8″-dipyrrolo[2,3-b:3′,2′-d]pyridin]-7″-one, trifluoroacetate salt] | ≤ 100 | > 2500 | ≤ 100 | > 2500
CCS(=O)(=O)N1CC2(C1)CC1(C2)C(=O)N(C)c2cnc3[nH]c(-c4cnn(CC(F)F)c4)c(-c4ccc5c(cnn5C)c4)c3c21 [Example 93, 2″-(1-(2,2-Difluoroethyl)-1H-pyrazol-4-yl)-1-(ethylsulfonyl)-6″-methyl-1″-(1-methyl-1H-indazol-5-yl)-3″,6″-dihydro-7″-dispiro[azetidine-3,1′-cyclobutane-3′,8″-dipyrrolo[2,3-b:3′,2′-d]pyridin]-7″-one, trifluoroacetate salt] | ≤ 100 | 1250 to 2500 | ≤ 100 | 1250 to 2500
CCS(=O)(=O)N1CC2(C1)CC1(C2)C(=O)N(C)c2cnc3[nH]c(-c4cnn5c4CCC5)c(-c4ccc5c(cnn5C)c4)c3c21 [Example 94, 2″-(5,6-Dihydro-4H-pyrrolo[l,2-b]pyrazol-3-yl)-1-(ethylsulfonyl)-6″-methyl-1″-(1-methyl-1H-indazol-5-yl)-3″,6″-dihydro-7″-dispiro[azetidine-3,1′-cyclobutane-3′,8″-dipyrrolo[2,3-b:3′,2′-d]pyridin]-7″-one, trifluoroacetate salt] | ≤ 100 | > 2500 | ≤ 100 | > 2500
O=C(O)C(F)(F)F.[2H]C([2H])([2H])N1C(=O)C2(CC3(CN(S(=O)(=O)CC)C3)C2)c2c1cnc1[nH]c(-c3cnn(CC)c3)c(-c3ccc(OC)cc3)c21 [Example 95, 2″-(1-Ethyl-1H-pyrazol-4-yl)-1-(ethylsulfonyl)-1″-(4-methoxyphenyl)-6″-(methyl-d3)-3″,6″-dihydro-7″H-dispiro[azetidine-3,1′-cyclobutane-3′,8″-dipyrrolo[2,3-b:3′,2′-d]pyridin]-7″-one, trifluoroacetate salt] | ≤ 100 | 500 to 1250 | ≤ 100 | 500 to 1250
